Measurements as given in paper PMC9457941, “Synthesis and Kinase Inhibitory Potencies of Pyrazolo[3,4-g]isoquinolines” (Molecules, 2022).

Experiments:
CDK9/CyclinT = biological target: T1, CDK9/CyclinT (Homo sapiens, UniProt P50750); assay: ADP-Glo kinase inhibition assay, CDK9/CyclinT; format: biochemical; conditions: for IC50: 10 μM ATP, duplicate; for remaining activity at 1 µM: read-out: CDK9 % residual activity at 1 μM; for remaining activity at 10 µM: read-out: CDK9 % residual activity at 10 μM
T1 construct: host or cells: Sf9 insect cells (baculovirus)
T1 sequence (O60563 whole entry): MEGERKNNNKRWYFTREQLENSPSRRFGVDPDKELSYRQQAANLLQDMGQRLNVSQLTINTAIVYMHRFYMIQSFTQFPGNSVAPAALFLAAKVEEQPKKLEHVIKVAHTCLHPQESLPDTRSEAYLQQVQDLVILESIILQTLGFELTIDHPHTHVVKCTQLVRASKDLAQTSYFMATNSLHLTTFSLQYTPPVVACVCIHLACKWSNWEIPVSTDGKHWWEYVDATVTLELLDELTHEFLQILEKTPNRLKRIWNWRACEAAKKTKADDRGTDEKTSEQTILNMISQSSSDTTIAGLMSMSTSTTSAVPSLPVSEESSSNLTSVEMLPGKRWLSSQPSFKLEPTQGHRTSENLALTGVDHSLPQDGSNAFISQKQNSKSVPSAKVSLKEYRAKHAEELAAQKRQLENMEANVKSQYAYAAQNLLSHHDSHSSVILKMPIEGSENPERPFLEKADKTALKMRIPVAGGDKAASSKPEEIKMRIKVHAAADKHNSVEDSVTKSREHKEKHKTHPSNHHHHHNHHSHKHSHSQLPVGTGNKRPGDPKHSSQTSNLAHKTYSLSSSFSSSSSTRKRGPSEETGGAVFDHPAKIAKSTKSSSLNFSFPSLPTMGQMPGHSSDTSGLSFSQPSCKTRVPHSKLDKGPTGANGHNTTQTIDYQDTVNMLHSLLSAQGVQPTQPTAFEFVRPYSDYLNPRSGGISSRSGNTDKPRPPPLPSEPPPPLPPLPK
T1 sequence (P50750 whole entry): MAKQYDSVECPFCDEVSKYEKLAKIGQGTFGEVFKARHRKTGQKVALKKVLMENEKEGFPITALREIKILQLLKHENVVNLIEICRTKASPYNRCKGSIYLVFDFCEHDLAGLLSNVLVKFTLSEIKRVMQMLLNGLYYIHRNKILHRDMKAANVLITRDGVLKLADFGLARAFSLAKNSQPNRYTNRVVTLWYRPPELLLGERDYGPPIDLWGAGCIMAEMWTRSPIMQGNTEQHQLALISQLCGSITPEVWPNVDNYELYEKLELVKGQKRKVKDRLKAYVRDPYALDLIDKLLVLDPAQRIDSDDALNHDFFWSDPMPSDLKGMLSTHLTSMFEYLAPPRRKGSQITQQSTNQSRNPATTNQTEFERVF
Procedure: (§1) Kinase enzymatic activities were assayed in 384 well plates using the ADP-GloTM assay kit (Promega, Madison, WI, USA) according to the manufacturer’s guidance. Briefly, the reactions were carried out in a final volume of 6 μL for 30 min at 30 °C in an appropriate kinase buffer (10 mM MgCl2, 1 mM EGTA, 1 mM DTT, 25 mM Tris-HCl pH 7.5, 50 μg/mL heparin), with either protein or peptide as substrate in the presence of 10 μM ATP (40 mM Tris pH 7.5, 20 mM MgCl2 and 0.1 mg/mL of BSA). Afterward, 6 μL of ADP-GloTM Kinase Reagent was added to stop the kinase reaction. After an incubation time of 50 min at room temperature (RT), 12 μL of Kinase Detection Reagent was added for 1 h at RT. The transmitted signal was measured using the Envision (Perkin Elmer, Waltham, MA, USA) microplate luminometer and expressed in relative light unit (RLU). In order to determine the half maximal inhibitory concentration (IC50), the assays were performed in duplicate in the absence or presence of increasing doses of the tested compounds. GraphPad Prism6 software (GraphPad Software, San Diego, CA, USA) was used to fit dose–response curves and to determine the IC50 values. Kinase activities are expressed in the percentage of maximal activity, i.e., measured in the absence of an inhibitor. Peptide substrates were obtained from Proteogenix (Schiltigheim, France).
(§2) The following protein kinases were analyzed in this study: CDK5/p25 (human, recombinant, expressed in bacteria) was assayed with 0.8 μg/μL of histone H1 as substrate; CDK9/CyclinT (human, recombinant, expressed by baculovirus in Sf9 insect cells) were assayed with 0.27 μg/μL of the following peptide: […], as substrate; CK1ε (human, recombinant, expressed by baculovirus in Sf9 insect cells) was assayed with 0.022 μg/μL of the following peptide: […]pAYSITA (“Sp” stands for phosphorylated serine) as CK1-specific substrate; GSK3β (human, recombinant, expressed by baculovirus in Sf9 insect cells) were assayed with 0.010 μg/μL of GS-1 peptide, a GSK-3-selective substrate ([…]pEDEEE); Haspin-kd (human, kinase domain, amino acids 470–798, recombinant, expressed in bacteria) was assayed with 0.007 μg/μL of histone H3 (1–21) peptide ([…]) as substrate; Pim-1 (human proto-oncogene, recombinant, expressed in bacteria) was assayed with 0.8 μg/μL of histone H1 as substrate; MmCLK1 (from Mus musculus, recombinant, expressed in bacteria) was assayed with 0.027 μg/μL of the following peptide: […] as substrate; RnDYRK1A-kd (Rattus norvegicus, amino acids 1–499 including the kinase domain, recombinant, expressed in bacteria, DNA vector kindly provided by Dr. W. Becker, Aachen, Germany) was assayed with 0.033 μg/μL of the following peptide: […] as substrate.

CDK5/p25 = biological target: T2, CDK5/p25 (Homo sapiens, UniProt Q00535); assay: ADP-Glo kinase inhibition assay, CDK5/p25; format: biochemical; conditions: for remaining activity at 1 µM: read-out: CDK5 % residual activity at 1 μM; for remaining activity at 10 µM: read-out: CDK5 % residual activity at 10 μM
T2 construct: host or cells: bacteria
T2 sequence (Q00535 whole entry): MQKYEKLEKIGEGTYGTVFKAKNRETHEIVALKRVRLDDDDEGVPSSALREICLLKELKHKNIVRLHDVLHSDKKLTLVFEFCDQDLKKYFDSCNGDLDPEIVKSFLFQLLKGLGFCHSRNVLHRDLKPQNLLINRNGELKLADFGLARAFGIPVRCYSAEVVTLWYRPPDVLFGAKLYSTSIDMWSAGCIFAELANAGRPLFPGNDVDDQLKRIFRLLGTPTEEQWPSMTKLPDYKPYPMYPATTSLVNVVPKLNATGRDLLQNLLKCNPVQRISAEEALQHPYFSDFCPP
T2 sequence (Q15078 99-307, further chain): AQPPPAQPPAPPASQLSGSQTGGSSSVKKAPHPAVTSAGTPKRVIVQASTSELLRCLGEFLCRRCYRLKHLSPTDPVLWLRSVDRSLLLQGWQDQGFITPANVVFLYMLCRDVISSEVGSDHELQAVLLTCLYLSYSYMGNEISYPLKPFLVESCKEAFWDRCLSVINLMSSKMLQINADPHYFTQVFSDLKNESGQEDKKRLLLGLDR
Procedure: as §1, §2

RnDYRK1A-kd = biological target: T3, RnDYRK1A-kd (Rattus norvegicus, UniProt Q63470); assay: ADP-Glo kinase inhibition assay, DYRK1A; format: biochemical; conditions: for IC50: 10 μM ATP, duplicate, read-out: DYRK1A IC50; for remaining activity at 1 µM: read-out: DYRK1A % residual activity at 1 μM; for remaining activity at 10 µM: read-out: DYRK1A % residual activity at 10 μM
T3 construct: RnDYRK1A-kd (Rattus norvegicus, amino acids 1–499 including the kinase domain, recombinant, expressed in bacteria); made in house; host or cells: bacteria
Procedure: as §1, §2

Pim-1 = biological target: T4, Pim-1 (Homo sapiens, UniProt P11309); assay: ADP-Glo kinase inhibition assay, Pim-1; format: biochemical; conditions: 10 μM ATP, duplicate; for remaining activity at 1 µM: 1 μM compound, read-out: PIM1 % residual activity at 1 μM; for remaining activity at 10 µM: 10 μM compound, read-out: PIM1 % residual activity at 10 μM
T4 construct: host or cells: bacteria
T4 sequence (P11309 whole entry): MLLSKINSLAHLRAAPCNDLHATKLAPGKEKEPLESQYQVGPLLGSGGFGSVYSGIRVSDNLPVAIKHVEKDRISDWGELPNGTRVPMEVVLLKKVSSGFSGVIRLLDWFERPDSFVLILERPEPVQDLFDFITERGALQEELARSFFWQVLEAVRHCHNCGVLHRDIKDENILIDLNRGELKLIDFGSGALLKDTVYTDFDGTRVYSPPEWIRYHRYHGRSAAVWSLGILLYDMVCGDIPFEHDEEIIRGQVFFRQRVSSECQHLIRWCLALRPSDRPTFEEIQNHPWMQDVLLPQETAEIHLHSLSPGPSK
Procedure: as §1, §2

GSK3β = biological target: T5, GSK3β (Homo sapiens, UniProt P49841); assay: ADP-Glo kinase inhibition assay, GSK3β; format: biochemical; conditions: for IC50: 10 μM ATP, duplicate, read-out: GSK3 IC50; for remaining activity at 1 µM: read-out: GSK3 % residual activity at 1 μM; for remaining activity at 10 µM: read-out: GSK3 % residual activity at 10 μM
T5 construct: host or cells: Sf9 insect cells (baculovirus)
T5 sequence (P49841 whole entry): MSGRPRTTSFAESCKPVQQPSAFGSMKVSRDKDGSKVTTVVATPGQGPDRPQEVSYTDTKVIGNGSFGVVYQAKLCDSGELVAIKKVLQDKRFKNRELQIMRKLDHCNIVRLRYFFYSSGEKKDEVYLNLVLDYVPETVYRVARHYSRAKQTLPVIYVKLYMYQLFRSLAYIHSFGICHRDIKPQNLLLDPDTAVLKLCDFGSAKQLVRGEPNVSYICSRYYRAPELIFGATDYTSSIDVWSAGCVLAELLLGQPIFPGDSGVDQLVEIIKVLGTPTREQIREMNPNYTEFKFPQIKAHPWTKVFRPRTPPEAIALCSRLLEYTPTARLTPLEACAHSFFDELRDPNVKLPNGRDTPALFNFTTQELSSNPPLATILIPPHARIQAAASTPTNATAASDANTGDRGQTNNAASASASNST
Procedure: as §1, §2

[1] = test system: Haspin, CLK1, DYRK1A, CDK9/Cyclin T, GSK-3β, CK1ε, CDK5/p25 and Pim1; assay: Panel of eight protein kinases (ADP-Glo), statements across kinases; format: biochemical; conditions: 1 μM compound
Procedure: It should be noted that due to solubility issues, compound 1a could not be tested; only the corresponding methane sulfonate salt 1a’ was evaluated. The percentage of residual kinase activity was evaluated at 10 μM and 1 μM compound concentrations. […].
as §1, with “GraphPad Prism6 software (GraphPad Software, San Diego, CA, USA) was used to fit dose–response curves and to determine the IC50 values.” left out, “Peptide substrates were obtained from Proteogenix (Schiltigheim, France).” left out

CK1ε = biological target: T6, CK1ε (Homo sapiens, UniProt P49674); assay: ADP-Glo kinase inhibition assay, CK1ε; format: biochemical; conditions: 10 μM ATP, duplicate; for remaining activity at 1 µM: 1 μM compound, read-out: CK1 % residual activity at 1 μM; for remaining activity at 10 µM: 10 μM compound, read-out: CK1 % residual activity at 10 μM
T6 construct: host or cells: Sf9 insect cells (baculovirus)
T6 sequence (P49674 whole entry): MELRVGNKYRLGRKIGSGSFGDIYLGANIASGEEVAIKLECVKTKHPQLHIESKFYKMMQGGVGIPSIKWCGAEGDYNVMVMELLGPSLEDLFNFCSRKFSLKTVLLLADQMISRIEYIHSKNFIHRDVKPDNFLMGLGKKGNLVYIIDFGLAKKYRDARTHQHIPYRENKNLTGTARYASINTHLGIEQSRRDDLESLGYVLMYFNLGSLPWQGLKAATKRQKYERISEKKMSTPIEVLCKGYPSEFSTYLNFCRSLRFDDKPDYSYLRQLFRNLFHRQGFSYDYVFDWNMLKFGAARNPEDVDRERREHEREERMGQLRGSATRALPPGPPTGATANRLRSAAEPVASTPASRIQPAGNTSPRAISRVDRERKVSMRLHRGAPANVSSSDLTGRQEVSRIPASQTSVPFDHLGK
Procedure: as §1, §2

MmCLK1 = biological target: T7, MmCLK1 (Mus musculus, UniProt P22518); assay: ADP-Glo kinase inhibition assay, CLK1; format: biochemical; conditions: for IC50: 10 μM ATP, duplicate, read-out: CLK1 IC50; for remaining activity at 1 µM: read-out: CLK1 % residual activity at 1 μM; for remaining activity at 10 µM: read-out: CLK1 % residual activity at 10 μM
T7 construct: host or cells: bacteria
T7 sequence (P22518 whole entry): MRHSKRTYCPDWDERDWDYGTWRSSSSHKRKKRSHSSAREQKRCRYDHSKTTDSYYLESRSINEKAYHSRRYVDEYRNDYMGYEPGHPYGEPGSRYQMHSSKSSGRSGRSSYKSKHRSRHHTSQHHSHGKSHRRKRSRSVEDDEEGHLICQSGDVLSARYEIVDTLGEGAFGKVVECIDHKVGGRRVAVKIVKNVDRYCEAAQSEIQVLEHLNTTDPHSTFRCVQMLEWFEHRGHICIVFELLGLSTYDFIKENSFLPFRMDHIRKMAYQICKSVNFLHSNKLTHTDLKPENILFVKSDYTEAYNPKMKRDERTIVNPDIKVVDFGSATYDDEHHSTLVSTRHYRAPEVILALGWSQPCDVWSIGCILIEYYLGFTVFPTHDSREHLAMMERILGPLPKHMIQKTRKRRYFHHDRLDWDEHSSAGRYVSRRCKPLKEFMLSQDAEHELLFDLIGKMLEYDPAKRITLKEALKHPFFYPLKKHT
Procedure: as §1, §2

[2] = biological target: T8, Haspin-kd (human, kinase domain, amino acids 470–798) (Homo sapiens, UniProt Q8TF76); assay: ADP-Glo kinase inhibition assay, Haspin; format: biochemical; conditions: for IC50: 10 μM ATP, duplicate; for remaining activity at 1 µM: read-out: Haspin % residual activity at 1 μM; for remaining activity at 10 µM: read-out: Haspin % residual activity at 10 μM
T8 construct: Haspin-kd (human, kinase domain, amino acids 470–798, recombinant, expressed in bacteria); host or cells: bacteria
T8 sequence (Q8TF76 470-798): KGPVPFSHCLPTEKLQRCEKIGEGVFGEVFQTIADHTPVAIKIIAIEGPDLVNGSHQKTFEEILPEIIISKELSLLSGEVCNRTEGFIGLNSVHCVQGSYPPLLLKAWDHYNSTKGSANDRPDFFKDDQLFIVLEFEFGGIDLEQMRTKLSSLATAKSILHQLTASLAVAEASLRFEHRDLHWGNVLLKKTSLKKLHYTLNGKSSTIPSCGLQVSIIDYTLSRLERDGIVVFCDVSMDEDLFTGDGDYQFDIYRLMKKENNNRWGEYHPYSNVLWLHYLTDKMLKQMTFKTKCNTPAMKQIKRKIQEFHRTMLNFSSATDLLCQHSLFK
Procedure: as §1

panel of 486 kinases = conditions: cited from earlier work

SMILES	melting point	IC50 (CDK9/CyclinT)	remaining activity at 1 µM (CDK9/CyclinT)	remaining activity at 10 µM (CDK9/CyclinT)	remaining activity at 1 µM (CDK5/p25)	remaining activity at 10 µM (CDK5/p25)	remaining activity at 1 µM (RnDYRK1A-kd)	remaining activity at 10 µM (RnDYRK1A-kd)	remaining activity at 1 µM (Pim-1)	remaining activity at 10 µM (Pim-1)	remaining activity at 1 µM (GSK3β)	remaining activity at 10 µM (GSK3β)	remaining activity at 1 µM (CK1ε)	remaining activity at 10 µM (CK1ε)	IC50 (MmCLK1)	remaining activity at 1 µM (MmCLK1)	remaining activity at 10 µM (MmCLK1)	IC50 [2]	remaining activity at 1 µM [2]	remaining activity at 10 µM [2]	other results
O=[N+]([O-])c1c2ccncc2cc2cn[nH]c12	> 250 °C	–	–	–	–	–	–	–	–	–	–	–	–	–	–	–	–	–	–	–	–
CS(=O)(=O)O.O=[N+]([O-])c1c2ccncc2cc2cn[nH]c12	> 250 °C	–	–	–	–	–	–	–	–	–	–	–	–	–	–	–	–	–	–	–	–
Nc1c2ccncc2cc2cn[nH]c12 [Compound 2a, 1-H-pyrazolo[3,4-g]isoquinolin-9-amine]	> 250 °C	430 nM	22%	10%	45%	17%	32%	12%	100%	90%	48%	18%	71%	28%	296 nM	20%	8%	127 nM	13%	8%	IC50 (CDK5/p25; 10 μM ATP, duplicate): 927 nM; IC50 (RnDYRK1A-kd): 600 nM; IC50 (GSK3β): 411 nM; kinases inhibited to more than 50% at 1 μM [1]: six out of eight; Selectivity Index (SI) Haspin vs. CLK1 = CLK1 IC50/Haspin IC50 ([2]; Haspin vs. CLK1): 2.3
Cn1ncc2cc3cnccc3c(N)c21 [Compound 2b, 1-Methyl-1H-pyrazolo[3,4-g]isoquinolin-9-amine]	174 to 175 °C	578 nM	39%	15%	72%	60%	18%	5%	91%	71%	68%	44%	77%	42%	548 nM	36%	8%	112 nM	10%	14%	IC50 (RnDYRK1A-kd): 273 nM; Selectivity Index (SI) Haspin vs. DYRK1A ([2]; Haspin vs. DYRK1A, which was more inhibited than CLK1): 2.4
CCn1ncc2c(C3CC3)c3cnccc3c([N+](=O)[O-])c21 [Compound 3d, 4-Cyclopropyl-1-ethyl-9-nitro-1H-pyrazolo[3,4-g]isoquinoline]	97 °C	266 nM	33%	11%	67%	24%	67%	29%	99%	82%	17%	5%	61%	15%	229 nM	24%	5%	312 nM	21%	12%	IC50 (GSK3β): 226 nM
CCCCc1c2cnccc2c([N+](=O)[O-])c2c1cnn2CC [Compound 3e, 4-Butyl-1-ethyl-9-nitro-1H-pyrazolo[3,4-g]isoquinoline]	–	–	33%	10%	82%	57%	72%	16%	78%	35%	39%	10%	100%	60%	–	58%	16%	–	78%	19%	–
CCn1ncc2cc3cncc(Br)c3c([N+](=O)[O-])c21 [Compound 4, 8-Bromo-1-ethyl-9-nitro-1H-pyrazolo[3,4-g]isoquinoline]	–	–	59%	18%	92%	32%	52%	25%	77%	54%	88%	80%	100%	80%	–	42%	18%	–	77%	23%	inhibition at 1 µM ([2]; read-out: Haspin inhibition at 1 μM, 1 μM compound, % inhibition): 23%
COc1ncc2cc3cnccc3c([N+](=O)[O-])c2n1 [I]	–	–	–	–	–	–	–	–	–	–	–	–	–	–	–	–	–	–	–	–	kinases inhibited when tested on a large panel of 486 kinases (panel of 486 kinases): 12%
